The values that follow are results of earlier work, collected in patent US20180071205A1, “Stable Vitamin C System” (priority 2014, published 2018).

The conditions of series [1]: aqueous solutions; accelerated by alkalines, iron and copper; sodium salt at pH >6.
The conditions of series [2]: normal water-based preparation.

For `O=C1O[C@H]([C@@H](O)CO)C(O)=C1O` [L-ascorbic acid], in series [1], the “stability to oxidation by air” value was “rapidly oxidized by air”. For the same molecule, the pH entry in series [2] is recorded as “around 2”.
